Values joined by “and” are separate entries in the source; they are usually repeats but may differ in a detail not shown here. Identical values can stand only once.
Key:
[1] = NMDG-Cl assay by HPTS (H^+/Cl^− symport); format: biochemical; conditions: for EC50 NMDG-Cl (by HPTS): H^+/Cl^− symport, no gramicidin or oleic acid; for EC50 (Gra) NMDG-Cl (by HPTS): in the presence of gramicidin 0.1 mol%; for EC50 (OA) NMDG-Cl (by HPTS): in the presence of oleic acid 2 mol%
Description: The selectivity for Cl^−>H^+/OH^− transport of the perenosins was quantified using a modified NMDG-Cl assay. Unilamellar vesicles loaded with HPTS (1 mM) and N-methyl-D-glucamine chloride (NMDG-Cl) (100 mM), buffered to pH 7 with HEPES (10 mM) were prepared. Free base NMDG (0.5 M) was added increasing the extravesicular solution to pH 8, and the dissipation of this gradient following the addition of receptors was monitored. Dissipation of pH gradient indicates H^+/Cl^− symport (or the functionally equivalent OH^−/Cl^− exchange) mediated by perenosins. Gramicidin D (Gra) is a proton channel added to facilitate H^+ transport. The addition of oleic acid (OA), a naturally occurring fatty acid found in cell membranes, allowed the investigation of the enhancement in H^+/Cl^− symport, in the presence of oleic acid. Anion transporters can assist the fatty acid flip-flop mechanism by taking on the role of a flippase for fatty acid anions via binding to the anionic carboxylate head group, masking the charge and allowing rapid passage of the head group through the lipid bilayer. This in turn accelerates the natural proton transport mediated by fatty acids in biological membranes.
For all cases EC50 values were obtained from dose-response experiments and subsequent Hill analysis (see Supplementary Information). Chloride selectivity was then quantified to give a selectivity factor (SG), shown in Table 2, using the ratio of the EC50 values. From the previous cationophore coupled assays, it was evident that the capability of perenosins to facilitate electrogenic chloride transport is negligible, therefore an absence in selectivity for Cl^−>H^+/OH^− was expected. […] FOA values for the overall H^+/Cl^− cotransport rate were calculated for compounds 1d and 2–6 in the presence of OA and are also shown in Table 2. […] In the presence of fatty acids, an alternative pathway that involves the diffusion of the fatty acid complex and free fatty acids could replace this step. […] This may be likely due to the competitive binding of the receptors to the carboxylate head group so inhibiting chloride binding and transport.
S10.8. General Procedure for the HPTS Assay
Unilamellar vesicles were prepared using previously reported literature procedures16. A lipid film of POPC (1-palmitoyl-2-oleoyl-sn-glycero-3-phosphocholine) was prepared from a chloroform solution under reduced pressure and then dried under vacuum for 4 or more hours. The lipid film was rehydrated by vortexing with an internal solution containing HPTS (1 mM). The lipid suspension was then subjected to 9 freeze-thaw cycles and left to rest at room temperature for 30 minutes. After this, the suspension was extruded 25 times through a 200 nm polycarbonate membrane resulting in unilamellar vesicles of a mean diameter of 200 nm. The un-encapsulated HPTS was removed by size exclusion chromatography using a sephadex G-25 column and an external solution eluent that does not contain HPTS. The lipid solution obtained after dialysis was diluted to a standard volume (usually 10 mL) with the external buffered solution to obtain a lipid stock of known concentration.
In each experiment identical internal and external solutions were used with various salts (NMDG -Cl or sodium gluconate) buffered with HEPES (10 mM) to pH 7.0, and are detailed below.
The lipid stock was diluted with the external buffer solution to a standard volume (2.5 mL), to afford a solution with a lipid concentration of 0.1 mM. The compounds were added as a DMSO solution (10 μL) and when an assisting ionophore (gramicidin) or oleic acid (a naturally occurring monosaturated fatty acid) was used this was also added as a DMSO solution (5 μL, 0.1 mol% or 2 mol% respectively (with respect to lipid)). To start the experiment, after the addition of the compounds, a base pulse (25 μL, of NMDG or TBAOH (0.5 M)) was spiked in to generate a pH gradient across the membrane. […]

[2] = pKa by UV spectrophotometric titration in POPC vesicles; format: physicochemical; conditions: apparent pKa in presence of POPC lipid bilayer, NaCl 500 mM, phosphate 5 mM
Source text: The pK a at which protonation of the imine (N2, see Fig. 3) occurs gives an indication of the optimum pH for the binding of chloride anions. This is an important consideration in anti-cancer drug development as the external pH environment of cancer cells is mildly acidic (pH 6.7)[53] compared to that of healthy cells (pH 7.2–7.5)[54]. This can be exploited to selectively target cancer cells and potentially reduce the cytotoxic effects of perenosins when used as therapeutics for anti-cancer treatment. The apparent pK a values, shown in Table 1, for compounds 1d and 2–8 were determined both in aqueous solution (pK a (aq)) and in the presence of a 1-palmitoyl-2-oleoyl-sn-glycero-3-phosphocholine (POPC) lipid bilayer membrane (pK a (mem)). UV spectrophotometric titrations were conducted by varying the pH condition from neutral to acidic with the titration of either HPF6 or HCl.
The apparent pK a values were derived from nonlinear curve fitting of the absorbance plotted against the pH; global fitting of both wavelengths corresponding to the neutral and protonated species were performed whenever feasible, see Supplementary Information for details. […]
All spectra obtained have the increasing and decreasing peaks marked with an arrow.
Isosbestic points were not observed in the titrations due to break down of the imine in acidic conditions. The breakdown product is shown, for all compounds, as the increasing absorbance peak […]
S6.2 pKa Studies in Vesicles pKa values for compounds 1d, 2, 4, 5, 7 and 8 were determined experimentally in vesicles through a […]
absorbance between the UV -Vis spectra of the protonated and the neutral species. Unilamellar vesicles were prepared using previously reported literature procedures 7-9. A lipid film of POPC (1 - palmitoyl-2-oleoyl-sn-glycero-3-phosphocholine) was prepared from a chloroform solution under reduced pressure and then dried under vacuum for 4 or more hours. The lipid film was rehydrated by vortexing with a solution of phosphate buffered (5 mM) sodium chloride (500 mM). The lipid suspension was then subjected to 9 freeze-thaw cycles and left to rest at room temperature for 30 minutes. After this, the suspension was extruded 25 times through a 400 nm polycarbonate membrane resulting in unilamellar vesicles of a mean diameter of 400 nm. The titration solution was made up to a standard volume (2500 μL, 1 mM) with the lipid (615 μL), phosphate buffered (5 mM) sodium chloride (500 mM) solution ([…]) and a transporter solution (10 μL, 25 mM), and the pH of this was noted . The UV-Vis spectra were recorded on an Agilent Cary 100 UV-Vis spectrophotometer at 25 °C with baseline correction, using standard 10 mm quartz glass cells. A baseline absorbance was measured using a solution of lipid, phosphate buffered (5 mM) sodium chloride (500 mM) and DMSO, and then the absorbance of the titration solution was measured. The pH of the solution was decreased stepwise by adding small aliquots of hydrochloric acid (0.1 mM).
(1 picture or pasted object on this page, not shown here)
After each pH decrease an absorbance measurement was taken. The absorbance at a certain wavelength (shown for each compound below) was plotted against the pH and then fitted using a dose response curve in OriginPro 9.1, where the point of inflection corresponds to the apparent pKa […]
Figure S44. Absorbance spectra taken over the course of a pH-spectrophotometric titration of 1d (25 mM) in a sodium chloride (500 mM) phosphate buffered (5 mM) lipid solution (1 mM). Inset: Abs vs. pH with dose response curve fit and the point of inflection corresponding to the p Ka value.
Figure S45. Absorbance spectra taken over the course of a pH -spectrophotometric titration of 2 (25 […]
pH with dose response curve fit with the point o f inflection corresponding to the p Ka value. […]

| SMILES | EC50 NMDG-Cl (by HPTS) [1] | EC50 (Gra) NMDG-Cl (by HPTS) [1] [mol%] | EC50 (OA) NMDG-Cl (by HPTS) [1] [mol%] | pK a (mem) [2] |
| --- | --- | --- | --- | --- |
| CCCCCc1cc2cc(C)cc(/N=C/c3[nH]c(C)c(CCCCC)c3C)c2[nH]1 [Perenosin 6] | 0.00249 mol% | 0.00211 | 0.00208 | – |
| CCCCCc1cc2cc(C)cc(/N=C/c3[nH]c4ccccc4c3C)c2[nH]1 [Perenosin 8] | – | – | – | 5.62 |
| CCCCCc1c(C)[nH]c(/C=N/c2cc(C)cc3cc[nH]c23)c1C [Perenosin 5] | 0.00231 mol% | 0.00095 | 0.00273 | 5.81 |
| CCCCCc1cc(/N=C/c2[nH]c3ccccc3c2C)c2[nH]ccc2c1 [Perenosin 7] | – | – | – | 5.07 |
| CCCCCc1cc2cc(C(F)(F)F)cc(/N=C/c3[nH]c(C)cc3C)c2[nH]1 [Perenosin 3] | 0.01151 mol% | 0.00879 | 0.04912 | – |
| CCCCCc1cc(/N=C/c2[nH]c(C)cc2C)c2[nH]ccc2c1 [Perenosin 1d] | 0.0107 mol% and 0.01073 mol% | 0.00656 | 0.00925 | 5.42 |
| CCCc1cc2cc(C)cc(/N=C/c3[nH]c(C)cc3C)c2[nH]1 [Perenosin 4] | 0.00069 mol% | 0.00038 | 0.00008 | 6.12 |
| CCCCCc1cc2cc(C)cc(/N=C/c3[nH]c(C)cc3C)c2[nH]1 [Perenosin 2] | 0.00062 mol% | 0.00037 | 0.00085 | 5.85 |

Source: PMC5570892, “Indole-based perenosins as highly potent HCl transporters and potential anti-cancer agents” (Scientific Reports, 2017)
